# Results reported in patent US10517889B2, “Modulators of SMAD7 expression” (Ionis Pharmaceuticals, Inc., priority 2017, dated 2019).
# Strand notation (5' to 3'): a small letter for the sugar, then the base; units joined by * are phosphorothioate-linked, units joined directly phosphodiester-linked; [ ] holds rarer units or linkages, { } end groups; capitals alone tell only the bases. k = constrained ethyl (cEt); [5mC] = 5-methylcytosine; d = 2'-deoxy (DNA)
# System: human SMAD7 mRNA
# Experiment: Antisense inhibition of human SMAD7 mRNA expression in Hep3B cells by 3-10-3 cEt gapmers, 10,000 nM, electroporation (Example 2)
# Type: cell-based
# Conditions: Hep3B cells, 10,000 nM antisense oligonucleotide, electroporation, approximately 24 hours, RT-PCR primer probe set RTS5062, relative to untreated control cells
# Procedure, shortened: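 SMAD7 mRNA was measured by real-time PCR (RTS5062) with RiboGreen total-RNA normalization, about 24 h after 10,000 nM gapmer was delivered by electroporation into Hep3B cells at 20,000 per well. Gapmers were 16-mer 3-10-3 cEt, fully phosphorothioate; values are % inhibition versus untreated controls.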
row,Substance,% Inhibition
1,790513 (k[5mC]*kA*k[5mC]*d[5mC]*dA*dG*d[5mC]*dT*dG*dA*d[5mC]*dT*d[5mC]*kT*kT*kG; antisense) [compound 790513],10%
2,799978 (k[5mC]*kT*k[5mC]*d[5mC]*dA*d[5mC]*dA*dA*d[5mC]*dG*dG*dA*d[5mC]*kA*kT*k[5mC]; antisense) [compound 799978],24%
3,800016 (kG*kT*kT*d[5mC]*dA*dT*dT*dT*dT*dA*dA*dA*dG*k[5mC]*kA*kT; antisense) [compound 800016],32%
4,798913 (k[5mC]*k[5mC]*k[5mC]*dT*d[5mC]*d[5mC]*dG*d[5mC]*dA*d[5mC]*dG*d[5mC]*dG*kG*k[5mC]*kT; antisense) [compound 798913],21%

# Same assay, conditions: Hep3B cells, electroporation with 10,000 nM antisense oligonucleotide, approximately 24 hours, RTS5062, percent inhibition of SMAD7 mRNA relative to untreated control cells
row,Substance,% Inhibition
1,799647 (antisense kA*k[5mC]*kA*dG*dA*dA*dA*d[5mC]*dT*d[5mC]*d[5mC]*dA*dG*kA*kT*kG) [compound 799647],0%
2,799292 (antisense kT*kG*kA*dT*dG*d[5mC]*dT*dG*dA*dT*dT*dA*dT*kT*kA*kA) [compound 799292],19%
3,799642 (kG*k[5mC]*kA*dA*dA*dT*d[5mC]*d[5mC]*dT*dT*dT*d[5mC]*d[5mC]*kA*kT*k[5mC]; antisense) [compound 799642],53%
4,799622 (kT*kT*k[5mC]*dT*dA*dA*dA*dA*dA*dT*dG*dT*d[5mC]*k[5mC]*k[5mC]*kA; antisense) [compound 799622],45%

# Same assay, conditions: Hep3B cells, electroporation with 10,000 nM antisense oligonucleotide, approximately 24 hours, SMAD7 mRNA by RT-PCR (RTS5062), relative to untreated control cells
row,Substance,% Inhibition
1,790496 (kG*k[5mC]*kA*dG*dA*dG*dT*d[5mC]*dG*dG*d[5mC]*dT*dA*kA*kG*kG; antisense) [compound 790496],42%
2,799960 (antisense kA*kA*kA*d[5mC]*dA*dG*dG*dG*dT*dT*d[5mC]*d[5mC]*d[5mC]*k[5mC]*k[5mC]*kA) [compound 799960],8%
3,799388 (antisense kT*kT*kG*d[5mC]*dA*dG*dA*dA*dT*dT*d[5mC]*d[5mC]*dA*kG*kG*kA) [compound 799388],41%
4,798682 (antisense kG*k[5mC]*kT*dA*dA*dG*dG*dA*dG*d[5mC]*dG*dA*dA*k[5mC]*kA*kT) [compound 798682],60%
5,830143 (antisense kG*kG*kT*dG*dT*dG*d[5mC]*dA*d[5mC]*d[5mC]*dA*dG*dG*kT*kG*kA) [compound 830143],62%
6,830117 (k[5mC]*k[5mC]*kA*d[5mC]*d[5mC]*d[5mC]*dT*dA*dA*dA*d[5mC]*dT*dG*kA*kG*k[5mC]; antisense) [compound 830117],5%
7,798905 (kG*kG*k[5mC]*dT*dG*dT*dT*dG*dA*dA*dG*dA*dT*kG*kA*k[5mC]; antisense) [compound 798905],35%
8,799354 (kA*kT*k[5mC]*dT*dA*d[5mC]*dT*d[5mC]*dA*d[5mC]*d[5mC]*dA*dG*kT*kT*kG; antisense) [compound 799354],0%
9,799508 (antisense kG*k[5mC]*kA*dA*dT*dT*dA*dA*dA*dG*d[5mC]*dA*dA*kA*kA*k[5mC]) [compound 799508],0%
10,800081 (antisense k[5mC]*kG*kG*dT*dA*dT*dT*dA*dA*d[5mC]*d[5mC]*d[5mC]*dG*kG*kG*k[5mC]) [compound 800081],0%
11,800028 (k[5mC]*kA*k[5mC]*dA*dG*d[5mC]*d[5mC]*d[5mC]*dA*d[5mC]*dA*d[5mC]*dG*kA*kG*kT; antisense) [compound 800028],10%
12,799428 (antisense kG*kA*k[5mC]*d[5mC]*dA*d[5mC]*dA*d[5mC]*dA*dG*dT*dA*d[5mC]*k[5mC]*kT*kA) [compound 799428],47%
13,798694 (antisense kG*kT*k[5mC]*d[5mC]*dT*d[5mC]*dG*d[5mC]*d[5mC]*dG*d[5mC]*d[5mC]*dG*kG*kG*k[5mC]) [compound 798694],0%

# Same assay, conditions: Hep3B cells, electroporation with 10,000 nM antisense oligonucleotide, approximately 24 hours, primer probe set RTS5062, relative to untreated control cells
Substance,% Inhibition,% inhibition of SMAD7 mRNA expression
798958 (antisense kA*kA*k[5mC]*dA*dA*dT*dT*d[5mC]*dT*dT*dT*dT*d[5mC]*kA*kT*kA) [compound 798958],0%,–
799003 (antisense kA*k[5mC]*kA*d[5mC]*dA*dG*d[5mC]*d[5mC]*dG*d[5mC]*dA*d[5mC]*dA*k[5mC]*kT*k[5mC]) [compound 799003],–,0%
799215 (kA*kG*k[5mC]*dA*dA*dA*dG*dT*dG*d[5mC]*dA*dT*d[5mC]*kT*kT*kT; antisense) [compound 799215],–,0%
799225 (kA*k[5mC]*kA*d[5mC]*d[5mC]*dA*dA*dT*d[5mC]*dT*dT*dG*dT*kG*kT*kT; antisense) [compound 799225],4%,–
798995 (antisense kA*k[5mC]*kT*d[5mC]*dA*d[5mC]*dA*d[5mC]*dT*d[5mC]*dA*d[5mC]*dA*k[5mC]*kA*k[5mC]) [compound 798995],0%,–
799140 (antisense kT*kG*kA*d[5mC]*dG*dG*dA*d[5mC]*d[5mC]*dA*dA*dA*dT*k[5mC]*k[5mC]*kT) [compound 799140],60%,–
799039 (kT*kG*k[5mC]*dT*dG*dG*dG*dA*d[5mC]*d[5mC]*d[5mC]*d[5mC]*dA*kG*k[5mC]*k[5mC]; antisense) [compound 799039],19%,–

# Same assay, conditions: Hep3B cells, electroporation, 10,000 nM antisense oligonucleotide, approximately 24 hours, RTS5062, relative to untreated control cells
row,Substance,% inhibition of SMAD7 mRNA expression
1,799620 (kT*kA*kA*d[5mC]*dG*dA*d[5mC]*d[5mC]*dA*dG*dG*d[5mC]*d[5mC]*kT*kG*kT; antisense) [compound 799620],31%
2,799834 (antisense kG*kT*kG*dG*dT*dA*dT*dA*dG*d[5mC]*dA*dT*dG*k[5mC]*kA*kT) [compound 799834],0%
3,799793 (kG*kT*kT*d[5mC]*dT*dT*d[5mC]*d[5mC]*dT*dG*d[5mC]*dT*dG*kT*k[5mC]*kA; antisense) [compound 799793],30%
4,799283 (antisense kA*kA*kG*dA*d[5mC]*dA*dG*dA*d[5mC]*d[5mC]*dA*d[5mC]*dA*kG*k[5mC]*kA) [compound 799283],34%
5,799501 (antisense kA*kA*kA*dA*dG*dA*dG*d[5mC]*dA*dG*dA*d[5mC]*dG*kG*kG*k[5mC]) [compound 799501],0%
6,799831 (antisense kT*kA*k[5mC]*dT*dT*dG*dG*dA*dA*dG*dA*dG*dT*kT*kT*kG) [compound 799831],18%
7,799818 (antisense k[5mC]*kA*k[5mC]*dT*dG*dA*dT*dA*dA*d[5mC]*dT*dA*dA*k[5mC]*kT*kT) [compound 799818],24%
8,799636 (k[5mC]*kA*k[5mC]*dA*dG*dA*d[5mC]*dT*dG*d[5mC]*d[5mC]*dA*dA*kA*kT*k[5mC]; antisense) [compound 799636],55%
9,799558 (k[5mC]*kT*kT*d[5mC]*dT*dA*dT*dT*d[5mC]*dG*dA*dG*d[5mC]*kT*kG*k[5mC]; antisense) [compound 799558],47%
10,799737 (antisense k[5mC]*kT*kT*dA*dG*dA*dG*dT*dA*dT*dA*dA*dA*kT*kA*k[5mC]) [compound 799737],5%
11,799812 (antisense k[5mC]*kA*kG*dA*d[5mC]*dA*dG*d[5mC]*dT*dA*dA*dT*d[5mC]*kT*kG*k[5mC]) [compound 799812],39%

# Same assay, conditions: SMAD7 mRNA, Hep3B cells, 10,000 nM antisense oligonucleotide, electroporation, approximately 24 hours, primer probe set RTS5062, relative to untreated control cells
row,Substance,% Inhibition
1,829732 (antisense k[5mC]*kA*kT*dG*dA*dA*dG*dA*dA*dG*dT*d[5mC]*dG*kG*kG*k[5mC]) [compound 829732],40%
2,790486 (kT*kG*k[5mC]*d[5mC]*dT*dG*dA*dG*dA*dT*d[5mC]*d[5mC]*dG*kG*k[5mC]*k[5mC]; antisense) [compound 790486],23%

# Same assay, conditions: SMAD7 mRNA, Hep3B cells, electroporation with 10,000 nM antisense oligonucleotide, approximately 24 hours, primer probe set RTS5062, relative to untreated control cells
row,Substance,% Inhibition
1,829938 (kA*kT*kT*d[5mC]*dA*dG*d[5mC]*dT*dA*dG*dG*dT*dG*kA*kT*kA; antisense) [compound 829938],17%
2,829842 (k[5mC]*k[5mC]*kG*dA*dG*dG*d[5mC]*dA*dA*dA*dA*dG*d[5mC]*k[5mC]*kA*kT; antisense) [compound 829842],26%
3,829892 (antisense kG*kA*kT*d[5mC]*dT*dG*d[5mC]*dA*d[5mC]*dG*dG*dT*dA*kA*kA*kG) [compound 829892],32%
4,830000 (kA*k[5mC]*kT*dG*dT*dT*dT*dG*dT*d[5mC]*dT*dT*dA*kG*k[5mC]*kT; antisense) [compound 830000],51%
5,829848 (antisense kT*kT*kG*dT*d[5mC]*d[5mC]*dG*dA*dA*dT*dT*dG*dA*kG*k[5mC]*kT) [compound 829848],47%
6,829913 (antisense k[5mC]*k[5mC]*kT*dT*dG*dG*dG*dT*dT*dA*dT*dG*dA*k[5mC]*kG*kG) [compound 829913],40%
7,829928 (k[5mC]*kA*k[5mC]*dT*dA*d[5mC]*dA*dA*dT*dG*d[5mC]*dT*dA*kA*kA*kT; antisense) [compound 829928],26%
8,829858 (antisense kT*kG*k[5mC]*dT*d[5mC]*d[5mC]*dG*d[5mC]*dA*d[5mC]*d[5mC]*dT*dT*k[5mC]*kT*kG) [compound 829858],59%
